# Values joined by “and” are separate entries in the source; they are usually repeats but may differ in a detail not shown here. Equal values may be shown once. Read-outs that look alike come from different tables or passages of the source. Marks after values point to notes of the source that are not given here.
# Tests used:
# Format in all cases: in vivo
# [1] = system: Myzus persicae (aphids); experiment: insecticidal mortality test, contact, Chinese Cabbage leaf; conditions: 72 h, read-out: grading of mortality, MP
# Description: (§1) The activity of the Product was determined using a variety of insect pests. The Product was used in the form of liquid preparations containing 500, 250 or 100 parts per million (ppm) by weight of the Product. The preparations were made by dissolving the Product in acetone and diluting the solutions with water containing 0.01% by weight of a wetting agent sold under the trade name "LlSSAPOL" NX until the liquid preparations contained the required concentration of the Product. "Lissapol" is a Registered Trade Mark.
# (§2) The test procedure adopted with regard to each pest was basically the same and comprised supporting a number of the pests on a medium which was usually a host plant or a foodstuff on which the pests feed, and treating either or both the pests and the medium with the preparations. The mortality of the pests was then assessed at periods usually varying from one to three days after the treatment.
# (§3) The results of the tests are given in Table III for each of the Products, at the rate in parts per million given in the second column as a grading of mortality designated as A, B or C wherein A indicates 80-100% mortality, B indicates 50-79% mortality and C indicates less than 50% mortality.
# (§4) In Table 111 the pest organism used is designated by a letter code and the pests species, the support medium or food, and the type and duration of test is given in Table II.
# [2] = system: Tetranychus urticae (spider mites - adult); experiment: insecticidal mortality test, contact, French bean leaf; conditions: Tetranychus urticae, 72 h; for mortality at 100 ppm: read-out: grading of mortality, Tua, 100 ppm, 3 days
# Description: as §1, §2, §3, §4
# [3] = system: Diabrotica balteata (rootworm larvae); experiment: insecticidal mortality test, residual, filter paper/maize seed; conditions: read-out: grading of mortality, DB; for mortality at 100 ppm: 48 h
# Description: as §1, §2, §3, §4
# [4] = system: Nephotettix cincticeps (green leaf hopper - nymphs); experiment: insecticidal mortality test, contact, rice plant; conditions: 48 h, 100 ppm, contact, rice plant, test duration of 2 days (footnote +), read-out: grading of mortality, NC
# Description: as §1, §2, §3, §4
# [5] = system: Blattella germanica (cockroach nymphs); experiment: insecticidal mortality test, residual, plastic pot; conditions: 72 h, read-out: grading of mortality, BG
# Description: as §1, §2, §3, §4
# [6] = system: Musca domestica (houseflies - adults); experiment: insecticidal mortality test, contact, cotton wool/sugar; conditions: read-out: grading of mortality, MD; for mortality at 100 ppm: 72 h
# Description: as §1, §2, §3, §4
# [7] = system: Blattella germanica (adult males); experiment: Blattella germanica knockdown test; conditions: for KT₅₀: time taken to knockdown 50% of test insects; for KT₅₀ / KT₉₀: Tetramethrin: mean of 3 assessments; for KT₉₀: time taken to knockdown 90% of test insects; for pest or weed control at 250 ppm / mortality at 250 ppm: Blattella germanica; for pest or weed control at 250 ppm: topical, Tetramethrin: mean of 27 observations; for pest or weed control at 250 ppm / % KNOCKDOWN OBSERVED 15 min / % KNOCKDOWN OBSERVED 20 min: 250 ppm in kerosene, 1 cm3 sprayed onto 10 adult males; for pest or weed control at 250 ppm / % KNOCKDOWN OBSERVED 15 min / % KNOCKDOWN OBSERVED 20 min / mortality at 250 ppm / % MORTALITY 48 hrs: tests 1 and 2 are repeats; for mortality at 250 ppm: 48 h; for mortality at 250 ppm / % MORTALITY 48 hrs: insects held at 25°C and 65% relative humidity for 48 hours; for % MORTALITY 48 hrs: 2880 min
# Description: The test compound was dissolved in acetone (2 cm³) and the solution diluted to a concentration of 250 ppm with kerosene. 1 cm³ Of this preparation was sprayed onto 10 Blattella germanica (adult males) held in a netted plastic pot in a Burkhard potter Tower. Assessment of knockdown was performed at intervals of 5 minutes up to a total of 20 minutes. On removal from the Burkhard Potter Tower, the insects were held at 25°C and 65% relative humidity for 48 hours, and an assessment of mortality performed. Each test was repeated.
# In some tests, additional knockdown assessment was performed at intervals of 1, 2, 3 and 4 minutes, and KT₅₀ and KT₉₀ values determined (the time taken, in minutes, to knockdown 50% and 90% respectively of test insects).
# [8] = system: Spodoptera exigua (lesser army worm - larvae); experiment: insecticidal mortality test, residual, cotton leaf; conditions: 48 h, read-out: grading of mortality, SP
# Description: as §1, §2, §3, §4
# [9] = system: Heliothis virescens (tobacco budworm - larvae); experiment: insecticidal mortality test, residual, cotton leaf; conditions: residual, cotton leaf, read-out: grading of mortality, HV; for mortality at 100 ppm: 48 h, test duration of 2 days (footnote +)
# Description: as §1, §2, §3, §4
# [10] = system: Musca domestica (adult females); experiment: Musca domestica knockdown test; conditions: 1 cm3 of 30 ppm solution in acetone, Kearns and March chamber, 20 adult females, observed over 10 minutes; average of 2 replicates (* single replicate, ** average of 7 tests)
# Description: 1 cm³ Of a 30 ppm solution of the test chemical in acetone was sprayed into a Kearns and March chamber containing 20 Musca domestica (adult females). Knockdown was observed over a period of 10 minutes and KT₅₀ and KT₉₀ values (the time taken for 50% and 90% of the insects to be knocked down) were calculated from the observations. The results given in Table V represent average KT values of 2 replicates except where otherwise stated.
# [11] = 10 min, 10 min, read-out: % KNOCKDOWN OBSERVED 10 min
# [12] = 250 ppm spray, read-out: % MORTALITY 48 hrs
smiles,measurement,setting,value
"C#CCSCc1c(F)c(F)c(COC(=O)[C@@H]2[C@H](/C=C(\Cl)C(F)(F)F)C2(C)C)c(F)c1F (racemic) [Product XXV, 4-[(prop-2-yn-1-yl)thiomethyl]-2,3,5,6-tetra fluorobenzyl (1RS, cis)-3-(Z-2-chloro-3,3,3-trifluoroprop-1-en-1-yl)-2,2-dimethylcyclopropanecarboxylate]",mortality at 100 ppm,[1],80 to 100%
same,mortality at 100 ppm,[2],80 to 100%
same,mortality at 100 ppm,[3],80 to 100%
same,mortality at 100 ppm,[4],80 to 100%
same,mortality at 100 ppm,[5],80 to 100%
same,mortality at 100 ppm,[6],80 to 100%
same,KT₅₀,[7]; 250 ppm spray,2.5 min and 3.6 min
same,KT₉₀,[7]; 250 ppm spray,4.5 min and 8.3 min
same,pest or weed control at 250 ppm,[7]; [11],100%
same,mortality at 100 ppm,[8],80 to 100%
same,mortality at 100 ppm,[9],80 to 100%
"CC(=O)SCc1c(F)c(F)c(COC(=O)[C@@H]2[C@H](/C=C(\Cl)C(F)(F)F)C2(C)C)c(F)c1F (racemic) [Product XXVI, 4-(acetylthiomethyl)-2,3,5,6-tetrafluorobenzyl (1RS, cis)-3-(Z-2-chloro-3,3,3-trifluoroprop-1-en-1-yl)-2,2-dimethylcyclopropanecarboxylate]",mortality at 100 ppm,[1],80 to 100%
same,mortality at 100 ppm,[2],80 to 100%
same,mortality at 100 ppm,[3],80 to 100%
same,mortality at 100 ppm,[4],80 to 100%
same,mortality at 100 ppm,[5],80 to 100%
same,mortality at 100 ppm,[6],80 to 100%
same,% KNOCKDOWN OBSERVED 15 min,[7],60%
same,% KNOCKDOWN OBSERVED 20 min,[7],100%
same,mortality at 250 ppm,[7]; [12],100%
same,mortality at 100 ppm,[8],80 to 100%
same,mortality at 100 ppm,[9],80 to 100%
"CC(=O)SCc1c(F)c(F)c(COC(=O)[C@@H]2[C@@H](/C=C(\Cl)C(F)(F)F)C2(C)C)c(F)c1F (racemic) [Product XXVII, 4-(acetylthiomethyl)-2,3,5,6-tetrafluorobenzyl (1RS, trans)-3-(Z-2-chloro-3,3,3-trifluoroprop-1-en-1-yl)-2,2-dimethylcyclopropanecarboxylate]",mortality at 100 ppm,[1],80 to 100%
same,mortality at 100 ppm,[2],80 to 100%
same,mortality at 100 ppm,[3],80 to 100%
same,mortality at 100 ppm,[4],80 to 100%
same,mortality at 100 ppm,[5],< 50%
same,mortality at 100 ppm,[6],80 to 100%
same,% KNOCKDOWN OBSERVED 15 min,[7],40%
same,% KNOCKDOWN OBSERVED 20 min,[7],40%
same,% MORTALITY 48 hrs,[7]; 250 ppm spray,80%
same,mortality at 250 ppm,[7]; [12],100%
same,mortality at 100 ppm,[8],80 to 100%
same,mortality at 100 ppm,[9],80 to 100%
"CC=NNc1c(F)c(F)c(COC(=O)C2C(C=C(Cl)C(F)(F)F)C2(C)C)c(F)c1F (stereo not drawn) [Product XIV, E/Z-4-(ethylidenehydrazino)-2,3,5,6-tetrafluorobenzyl (1RS, cis)-3-(Z-2-chloro-3,3,3-trifluoroprop-1-en-1-yl)-2,2-dimethylcyclopropanecarboxylate]",mortality at 500 ppm,[1],80 to 100%
same,mortality at 500 ppm,"[2]; read-out: grading of mortality, Tua, 500 ppm, 3 days",< 50%
same,mortality at 500 ppm,[3]; 72 h,80 to 100%
same,KT₅₀,[10],6.6 min
same,KT₉₀,[10],9.4 min
same,mortality at 500 ppm,[5],80 to 100%
same,mortality at 500 ppm,[6]; 24 h,80 to 100%
same,% KNOCKDOWN OBSERVED 15 min,[7],100%
same,% MORTALITY 48 hrs,[7]; 250 ppm spray,50% and 90%
same,mortality at 500 ppm,"[9]; 72 h, 500 ppm, 3 days",80 to 100%
"CC(C)=CC1C(C(=O)OCN2C(=O)C3=C(CCCC3)C2=O)C1(C)C (stereo not drawn) [Tetramethrin, reference compound]",KT₅₀,[10],4.0** mins
same,KT₉₀,[10],7.5** mins
same,KT₅₀,[7]; 250 ppm spray,1.7** mins
same,KT₉₀,[7]; 250 ppm spray,3.2** mins
same,mortality at 250 ppm,"[7]; read-out: % MORTALITY 48 hrs, 250 ppm spray",50%
same,pest or weed control at 250 ppm,"[7]; 5 min, 5 min, read-out: % KNOCKDOWN OBSERVED 5 min",80%
same,pest or weed control at 250 ppm,[7]; [11],100%

# Source: patent publication EP0302626A2, “Insecticidal compounds” (IMPERIAL CHEMICAL INDUSTRIES PLC, priority 1987, dated 1989)
